Where no end group is shown, it is not given here.
How the values were obtained:
Type in all cases: cell-based
3T3 cells = test: RMMR1-FITC synthetic peptide cell penetration efficiency (fluorescence value) in 3T3; details: 2.5 uM, 2 hours
Procedure: (§1) HaCaT, 3T3, and B16F10 cells were cultured in cell culture medium supplemented with 10% of fetal bovine serum (FBS) and antibiotic solution (100 units/ml of penicillin, 100 μg/ml of streptomycin) in DMEM medium. Cells were cultured under conditions maintained at 37° C., 95% humidity, and 5% CO2, and when the cells were 70-80% adhered to the culture dish, they were treated with trypsin-EDTA and subcultured. HaCaT cells were distributed and cultured from Professor Kim Tae Yoon of the College of Medicine, The Catholic University of Korea, 3T3 and B16F10 cells were distributed and cultured from the Seoul National University Cell Line Bank. RAW264.7 cells were distributed and cultured from the laboratory of Professor Kim Sang-Beom, College of Pharmacy, Sahmyook University.
(§2) In order to evaluate the cell permeability of RMMR1 in HaCaT, 3T3, B16F10 cells, 1×10^5 of HaCaT cells were attached to a 24-well plate 12 hours in advance. Thereafter, the cells were washed using serum-free DMEM medium and then treated with 2.5 uM of protein in serum-free medium for 2 hours. After 2 hours, the cells were washed a total of 3 times with serum-free medium, and then the cells were detached from the plate by treatment with 150 ul of trypsin, and then neutralized by adding 850 ul of serum-containing medium. […]

RAW264.7 cells = test: Antigen-presenting cell penetration efficiency of FITC-attached peptide; details: 2.5 uM, 2 hours, FITC fluorescence
Procedure: as §1
In order to identify the penetration efficiency of RMMR1 into antigen-presenting cells, the transduction efficiency was confirmed using cell line RAW264.7 using a synthetic peptide attached with fluorescent FITC. In the case of cells without FITC attached, it is difficult to identify the permeability of the peptide, so attaching fluorescent FITC makes it easier to identify cell permeability. Each cell line was treated with FITC-attached peptides RMMR1-FITC (SEQ. NO. 1) and TAT-FITC at the same concentration of 2.5 uM for 2 hours.

B16F10 cells = test: RMMR1-FITC synthetic peptide cell penetration efficiency (fluorescence value) in B16F10; details: 2.5 uM, 2 hours
Procedure: as §1, §2

cells = test: FACS experiment to verify self-penetration efficacy of FITC peptides (summary statement); details: FITC-labelled peptide, cells not specified
Text: The present inventors synthesized FITC and conducted a FACS experiment to verify its self-penetration efficacy using the cell-penetrating peptide RMMR1 derived from the human MRPL15 protein.

Substance | cell penetration level compared with control TAT-FITC peptide (3T3 cells) | level of cell penetration compared with control TAT-FITC peptide (RAW264.7 cells) | cell penetration level compared with control TAT-FITC peptide (B16F10 cells) | cell penetration compared with HIV-Tat peptide (FITC, FACS) (cells)
RMMR1-FITC: RMMR1 (SEQ ID NO: 1) synthetic peptide attached with fluorescent FITC (ERRPRGRRRGRKC; also: FITC label, attachment site not given here; listed as Homo sapiens) | significantly higher cell penetration level than the control TAT-FITC peptide | higher level of cell penetration compared to the control TAT-FITC peptide | significantly higher cell penetration level than the control TAT-FITC peptide | 
ERRPRGRRRGRKC (listed as Homo sapiens) [RMMR1, 13 amino acid cargo molecule transduction domain derived from human MRPL15] |  |  |  | penetrated cells much better than the HIV-Tat peptide
